Here are results for 18 compounds from ChEMBL document CHEMBL1140580, “Synthesis and characterization of trans-4-(4-chlorophenyl)pyrrolidine-3-carboxamides of piperazinecyclohexanes as ligands for the melanocortin-4 receptor” (Bioorg Med Chem Lett, 2007).

Assay [1] deals with T1, Melanocortin receptor 4 (Homo sapiens, UniProt P32245). Kind of assay: Agonist activity at MC4R assessed as stimulation of cAMP release relative to alphaMSH. Format: functional.
Assay [2] concerns the target T1, Melanocortin receptor 4. In words: Displacement of […]NDPMSH from human MC4R expressed in HEK293 cells. Format: cell-based.
Assay [3] concerns the target T1, Melanocortin receptor 4. Kind of assay: Antagonist activity at MC4R assessed as inhibition of alpha-MSH-stimulated cAMP release. The assay is classed as functional.
Assay [4] addresses T1, Melanocortin receptor 4. Kind of assay: Agonist activity at MC4R assessed as stimulation of cAMP release. Format: functional.
In assay [5] the target is Melanocyte-stimulating hormone receptor (Homo sapiens, UniProt Q01726). In words: Binding affinity to MC1R.
Chain of Melanocyte-stimulating hormone receptor (Q01726 whole entry): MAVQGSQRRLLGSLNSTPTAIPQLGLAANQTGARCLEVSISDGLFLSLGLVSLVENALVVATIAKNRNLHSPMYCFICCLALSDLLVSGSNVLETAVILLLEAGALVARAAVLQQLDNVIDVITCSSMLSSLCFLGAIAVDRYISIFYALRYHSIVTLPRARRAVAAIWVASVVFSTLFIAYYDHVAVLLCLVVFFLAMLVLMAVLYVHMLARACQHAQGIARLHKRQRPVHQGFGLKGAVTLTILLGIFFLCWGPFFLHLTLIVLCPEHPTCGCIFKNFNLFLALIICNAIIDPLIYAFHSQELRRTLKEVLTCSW
Another assay has as its target Melanocortin receptor 5 (Homo sapiens, UniProt P33032). Kind of assay: Binding affinity to MC5R.
The target in the next assay is Melanocortin receptor 3 (Homo sapiens, UniProt P41968). In words: Binding affinity to MC3R.
Chain of Melanocortin receptor 3 (P41968 whole entry): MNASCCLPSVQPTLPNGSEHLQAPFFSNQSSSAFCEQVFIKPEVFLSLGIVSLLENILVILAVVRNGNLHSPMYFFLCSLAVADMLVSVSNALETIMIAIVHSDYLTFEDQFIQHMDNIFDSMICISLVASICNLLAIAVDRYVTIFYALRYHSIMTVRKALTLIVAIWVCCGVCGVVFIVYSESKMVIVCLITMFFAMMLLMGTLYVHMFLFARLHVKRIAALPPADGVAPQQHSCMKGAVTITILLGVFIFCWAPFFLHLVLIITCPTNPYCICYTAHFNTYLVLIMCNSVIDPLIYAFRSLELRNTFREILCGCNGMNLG
For assay [6], the target named is Melanocortin receptor 4 (Mus musculus, UniProt P56450). Kind of assay: Binding affinity to mouse MC4R.
Chain of Melanocortin receptor 4 (Mus musculus, UniProt P56450) (P56450 whole entry): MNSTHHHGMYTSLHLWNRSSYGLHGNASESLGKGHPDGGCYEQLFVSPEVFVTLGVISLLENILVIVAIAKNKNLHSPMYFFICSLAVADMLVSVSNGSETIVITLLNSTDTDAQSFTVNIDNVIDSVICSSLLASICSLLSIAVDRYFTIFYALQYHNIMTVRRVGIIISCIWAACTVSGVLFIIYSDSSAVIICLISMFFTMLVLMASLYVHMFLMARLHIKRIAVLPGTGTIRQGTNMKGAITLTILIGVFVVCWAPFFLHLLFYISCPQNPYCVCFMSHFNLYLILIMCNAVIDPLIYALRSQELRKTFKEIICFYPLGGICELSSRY

SMILES strings stand for the structures.

T1 sequence (P32245 whole entry): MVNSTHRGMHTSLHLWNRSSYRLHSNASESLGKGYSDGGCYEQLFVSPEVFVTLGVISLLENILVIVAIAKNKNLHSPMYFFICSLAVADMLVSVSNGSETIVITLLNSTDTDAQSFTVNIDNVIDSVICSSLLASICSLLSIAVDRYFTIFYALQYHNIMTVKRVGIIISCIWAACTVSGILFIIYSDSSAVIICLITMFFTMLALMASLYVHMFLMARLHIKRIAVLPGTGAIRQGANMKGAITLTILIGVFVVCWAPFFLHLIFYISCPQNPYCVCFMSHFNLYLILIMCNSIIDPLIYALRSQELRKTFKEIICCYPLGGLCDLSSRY
Chain of Melanocortin receptor 5 (P33032 whole entry, looked up): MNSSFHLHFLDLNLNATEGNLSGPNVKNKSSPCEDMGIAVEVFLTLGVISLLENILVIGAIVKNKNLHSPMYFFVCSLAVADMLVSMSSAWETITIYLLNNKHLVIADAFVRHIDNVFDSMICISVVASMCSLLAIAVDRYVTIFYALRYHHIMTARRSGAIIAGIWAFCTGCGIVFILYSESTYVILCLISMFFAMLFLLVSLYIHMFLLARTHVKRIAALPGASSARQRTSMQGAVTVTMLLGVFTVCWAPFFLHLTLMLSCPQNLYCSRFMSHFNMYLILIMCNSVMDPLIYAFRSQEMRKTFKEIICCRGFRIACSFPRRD

On to `O=C([C@H]1CN(C2CCCCC2)C[C@@H]1c1ccc(Cl)cc1)N1CCN(C2(CNCc3ccccc3)CCCCC2)CC1`, for which the Intrinsic activity at Melanocortin receptor 4 [1] is 16%. In addition, on Melanocortin receptor 4 [2], the Ki (usually a measure of affinity in units of concentration, obtained from inhibition or displacement) stood at 5.5 nM. Besides, on Melanocortin receptor 4 [3], the IC50 – broadly, the concentration at which inhibition is half-maximal – stood at 130 nM. Further, at Melanocortin receptor 4 [4], the concentration giving a half-maximal response (EC50) (as a rule, the concentration needed to bring the measured effect to its halfway point) was found to be 1500 nM.
Take `COc1ccc(CNCC2(N3CCN(C(=O)[C@H]4CN(C(C)C)C[C@@H]4c4ccc(Cl)cc4)CC3)CCCCC2)cc1F`: the Ki in assay [5] stood at 3900 nM; at Melanocortin receptor 5, 540 nM; on Melanocortin receptor 3 it was 760 nM; on Melanocortin receptor 4 [2] it was 0.5 nM; at Melanocortin receptor 4 [6], 0.6 nM. At Melanocortin receptor 4 [1], the Intrinsic activity is 10%. For the same compound, at Melanocortin receptor 4 [3], the half-maximal inhibitory concentration (IC50) amounted to 48 nM. For the same compound, the EC50 at Melanocortin receptor 4 [4] turned out to be 170 nM.
In the case of `COc1cccc(CNCC2(N3CCN(C(=O)[C@H]4CN(C(C)C)C[C@@H]4c4ccc(Cl)cc4)CC3)CCCCC2)c1`, at Melanocortin receptor 4 [1], the Intrinsic activity is 39%. The compound also displayed a Ki on Melanocortin receptor 4 [2] of 30 nM. For the same compound, the EC50 on Melanocortin receptor 4 [4] came out at 1200 nM.
In the same order, the values of `CC(C)N1C[C@H](C(=O)N2CCN(C3(CNCc4ccccc4Cl)CCCCC3)CC2)[C@@H](c2ccc(Cl)cc2)C1` are 75%, 25 nM and 1300 nM.
For the compound `CC(C)N1C[C@H](C(=O)N2CCN(C3(CNCc4ccc(F)cc4)CCCCC3)CC2)[C@@H](c2ccc(Cl)cc2)C1`, the Intrinsic activity at Melanocortin receptor 4 [1] came to 61%. Moreover, affinity on Melanocortin receptor 4 [2] was put at a Ki of 44 nM. The EC50 on Melanocortin receptor 4 [4] was found to be 6600 nM.
On to `CC(C)N1C[C@H](C(=O)N2CCN(C3(CNCc4ncc[nH]4)CCCCC3)CC2)[C@@H](c2ccc(Cl)cc2)C1`, for which the Intrinsic activity on Melanocortin receptor 4 [1] is 69%. Further, the Ki on Melanocortin receptor 4 [2] was 560 nM. Further, at Melanocortin receptor 4 [4], the EC50 was 230 nM.
Turning to `COc1ccccc1CNCC1(N2CCN(C(=O)[C@H]3CN(C(C)C)C[C@@H]3c3ccc(Cl)cc3)CC2)CCCCC1`, the Intrinsic activity on Melanocortin receptor 4 [1] amounted to 48%. Moreover, the Ki on Melanocortin receptor 4 [2] was 62 nM. At Melanocortin receptor 4 [4], the EC50 amounted to 1000 nM.
For `CC(C)N1C[C@H](C(=O)N2CCN(C3(CNCc4ccncc4)CCCCC3)CC2)[C@@H](c2ccc(Cl)cc2)C1`, the Intrinsic activity at Melanocortin receptor 4 [1] worked out at 27%. For the same compound, the Ki at Melanocortin receptor 4 [2] amounted to 27 nM. Also, the IC50 at Melanocortin receptor 4 [3] was 410 nM. Further, on Melanocortin receptor 4 [4], the 50% effective concentration (EC50) was 780 nM.
As for `CC(C)N1C[C@H](C(=O)N2CCN(C3(CNCc4ccccn4)CCCCC3)CC2)[C@@H](c2ccc(Cl)cc2)C1`, at Melanocortin receptor 4 [1], the Intrinsic activity was 34%. Besides, the Ki at Melanocortin receptor 4 [2] amounted to 76 nM. Also, at Melanocortin receptor 4 [4], the EC50 is 1200 nM.
The corresponding values for `CC(C)N1C[C@H](C(=O)N2CCN(C3(CNCc4ccco4)CCCCC3)CC2)[C@@H](c2ccc(Cl)cc2)C1` are 32%, 38 nM and 570 nM.
In the same order, the values of `CC(C)N1C[C@H](C(=O)N2CCN(C3(CNCc4ccsc4)CCCCC3)CC2)[C@@H](c2ccc(Cl)cc2)C1` are 31%, 22 nM and 840 nM.
Consider `CC(C)N1C[C@H](C(=O)N2CCN(C3(CNCc4ccccc4)CCCCC3)CC2)[C@@H](c2ccc(Cl)cc2)C1`, for which the Intrinsic activity at Melanocortin receptor 4 [1] was 31%. At Melanocortin receptor 4 [2], the Ki was determined as 26 nM. Besides, at Melanocortin receptor 4 [4], the EC50 stood at 1100 nM.
Regarding `CC(C)N1C[C@H](C(=O)N2CCN(C3(CNCc4ccc(F)cc4F)CCCCC3)CC2)[C@@H](c2ccc(Cl)cc2)C1`, the Intrinsic activity at Melanocortin receptor 4 [1] was determined as 27%. On Melanocortin receptor 4 [2], this compound displayed a Ki of 11 nM. Moreover, at Melanocortin receptor 4 [4], the EC50 came out at 1300 nM.
On to `O=C([C@H]1CN(C2CCCC2)C[C@@H]1c1ccc(Cl)cc1)N1CCN(C2(CNCc3ccccc3)CCCCC2)CC1`, for which the Intrinsic activity on Melanocortin receptor 4 [1] was 33%. Affinity at Melanocortin receptor 4 [2] was put at a Ki of 17 nM. Moreover, on Melanocortin receptor 4 [4], the EC50 came out at 1800 nM.
The corresponding values for `CC(C)N1C[C@H](C(=O)N2CCN(C3(CNCc4ccc(N(C)C)cc4)CCCCC3)CC2)[C@@H](c2ccc(Cl)cc2)C1` are 16%, 65 nM and 1100 nM.
As for `CC(C)N1C[C@H](C(=O)N2CCN(C3(CNCc4ccccc4F)CCCCC3)CC2)[C@@H](c2ccc(Cl)cc2)C1`, the Intrinsic activity at Melanocortin receptor 4 [1] is 48%. This compound also gave a Ki at Melanocortin receptor 4 [2] of 12 nM. The EC50 on Melanocortin receptor 4 [4] was found to be 580 nM.
In the same order, the values of `CC(C)N1C[C@H](C(=O)N2CCN(C3(CNCc4c[nH]cn4)CCCCC3)CC2)[C@@H](c2ccc(Cl)cc2)C1` are 49%, 220 nM and 110 nM.
On to `COc1ccc(CNCC2(N3CCN(C(=O)[C@H]4CN(C(C)C)C[C@@H]4c4ccc(Cl)cc4)CC3)CCCCC2)c(F)c1`, for which the Intrinsic activity on Melanocortin receptor 4 [1] amounted to 26%. This compound also showed a Ki on Melanocortin receptor 4 [2] of 1.8 nM. Further, the EC50 at Melanocortin receptor 4 [4] was 1600 nM.
